Source: US20240293405A1, “(1H-PYRROLO[2,3-B]PYRIDIN-1-YL)PYRIMIDIN-2-YL-AMINO-PHENYL-ACRYLAMIDE INHIBITORS OF EGFR FOR USE IN THE TREATMENT OF BRAIN TUMORS” (Dana-Farber Cancer Institute, Inc., priority 2021, published 2024)
Like-named read-outs stand apart in the source and are kept apart here.

Columns and labels:
[1] = molecular target: T1, P-gp (Homo sapiens, UniProt P08183); assay: P-glycoprotein inhibition (digoxin transport); type: in vitro ADME
T1 construct: expressed in transfected cells; host or cells: MDCKII-MDR1 cells
T1 sequence (P08183 whole entry): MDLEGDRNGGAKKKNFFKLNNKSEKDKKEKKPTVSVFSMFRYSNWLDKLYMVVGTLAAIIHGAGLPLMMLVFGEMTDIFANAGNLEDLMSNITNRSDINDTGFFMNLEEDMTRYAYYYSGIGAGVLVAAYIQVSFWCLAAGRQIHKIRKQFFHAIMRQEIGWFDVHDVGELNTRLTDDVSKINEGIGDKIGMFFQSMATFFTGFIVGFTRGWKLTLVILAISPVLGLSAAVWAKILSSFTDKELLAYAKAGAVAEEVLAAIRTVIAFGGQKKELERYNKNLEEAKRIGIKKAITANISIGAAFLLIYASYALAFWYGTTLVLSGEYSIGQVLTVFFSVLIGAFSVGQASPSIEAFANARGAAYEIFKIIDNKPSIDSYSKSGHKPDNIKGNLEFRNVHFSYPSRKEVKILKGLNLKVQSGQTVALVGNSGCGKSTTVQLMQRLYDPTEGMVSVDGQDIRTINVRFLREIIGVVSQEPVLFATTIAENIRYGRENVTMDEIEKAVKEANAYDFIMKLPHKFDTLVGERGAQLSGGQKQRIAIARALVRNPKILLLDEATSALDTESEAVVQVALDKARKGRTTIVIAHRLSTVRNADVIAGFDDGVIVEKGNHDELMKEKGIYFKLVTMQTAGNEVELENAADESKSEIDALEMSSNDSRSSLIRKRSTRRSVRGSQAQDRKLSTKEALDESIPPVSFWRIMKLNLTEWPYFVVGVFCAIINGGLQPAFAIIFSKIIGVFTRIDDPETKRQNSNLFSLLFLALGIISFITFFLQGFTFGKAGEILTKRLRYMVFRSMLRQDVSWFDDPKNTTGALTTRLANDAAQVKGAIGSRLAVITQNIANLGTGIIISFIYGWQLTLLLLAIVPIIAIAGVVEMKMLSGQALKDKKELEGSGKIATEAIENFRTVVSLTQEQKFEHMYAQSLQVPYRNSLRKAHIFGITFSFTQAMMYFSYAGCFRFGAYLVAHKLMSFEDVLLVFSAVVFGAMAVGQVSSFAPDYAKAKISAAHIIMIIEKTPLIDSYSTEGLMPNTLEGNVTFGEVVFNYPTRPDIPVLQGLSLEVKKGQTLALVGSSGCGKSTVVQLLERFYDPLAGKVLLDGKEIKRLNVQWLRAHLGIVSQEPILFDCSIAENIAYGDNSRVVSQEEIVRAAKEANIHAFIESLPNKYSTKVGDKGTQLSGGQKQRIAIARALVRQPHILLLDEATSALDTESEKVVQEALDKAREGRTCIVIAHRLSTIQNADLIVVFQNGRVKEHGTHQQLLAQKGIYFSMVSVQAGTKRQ
Text: Further understanding of DDI risk will await definition of Phase 2 doses and exposures.

[2] = molecular target: T2, CYP3A4-T (Homo sapiens, UniProt P08684); assay: CYP450 inhibition, human liver microsomes; type: in vitro ADME
T2 construct: from tissue; host or cells: human liver microsomes
T2 sequence (P08684 whole entry): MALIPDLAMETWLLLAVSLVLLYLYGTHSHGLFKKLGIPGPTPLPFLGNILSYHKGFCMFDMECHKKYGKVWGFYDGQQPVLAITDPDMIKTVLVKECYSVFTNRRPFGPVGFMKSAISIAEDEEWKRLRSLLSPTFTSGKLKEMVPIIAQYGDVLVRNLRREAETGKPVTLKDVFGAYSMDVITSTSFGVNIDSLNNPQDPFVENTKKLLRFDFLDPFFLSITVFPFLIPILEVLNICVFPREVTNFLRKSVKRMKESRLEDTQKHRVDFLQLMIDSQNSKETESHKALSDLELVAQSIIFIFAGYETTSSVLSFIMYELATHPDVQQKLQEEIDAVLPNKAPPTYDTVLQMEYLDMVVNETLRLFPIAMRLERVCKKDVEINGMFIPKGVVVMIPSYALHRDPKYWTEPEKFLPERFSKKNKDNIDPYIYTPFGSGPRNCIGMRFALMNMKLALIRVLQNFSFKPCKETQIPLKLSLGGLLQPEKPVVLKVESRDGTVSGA
Text: Metabolism, inhibition and induction were not observed with other CYPs. Potential DDI interactions exist with drugs that are inhibitors of CYP3A4-T or those metabolized by CYP3A4/3A5; these DDI risks will be better defined once there are human pharmacokinetics (PK) data.

[3] = Oral rat 4-week toxicity study with toxicokinetics; type: in vivo, Sprague-Dawley rats
Description: Compound 1 (0, 10, 30, and 100 mg/kg/day) was given orally, once daily by gavage to male and female Sprague-Dawley rats for up to 28 days. Morbidity, associated with marked body weight loss, necessitated termination of dosing in the high-dose group on Days 12/13. At this time, 5/sex in the high-dose group were taken to necropsy and 5/sex were started on recovery for the remainder of the study.
There were no obvious sex differences or accumulation (Table 13).
Major histological findings at the interim necropsy (100 mg/kg) included generalized lymphoid depletion, pulmonary edema/inflammation and testicular seminiferous tubule degeneration. All findings except testicular degeneration were reversible (˜14 days) in this study; the reversibility period was not long enough to assess reversibility of testicular changes. […] The STD10 was 30 mg/kg.

[4] = Oral dog 4-week toxicity study with toxicokinetics; type: in vivo, beagle dogs; conditions: for HNSTD: 4-week oral
Description: Compound 1 (0, 10, 30, and 100 mg/kg/day) was given orally, once daily by gavage, to male and female beagle dogs (4/sex) for up to 28 days. […] The cause of death in this high-dose male was attributed to myocardial degeneration. This lesion was not observed in any other dog on study. Increases in alkaline phosphatase, globulin, cholesterol, triglycerides and fibrinogen and decreased reticulocyte counts noted in the high-dose group at mid-study returned towards baseline by the end of the study following 11/12 days of recovery. Testicular changes at all doses (seminiferous epithelial vacuolation at 10 and 30 mg/kg and degeneration/atrophy at 100 mg/kg) were not reversible in this short-term study; the reversibility period was not long enough to assess reversibility of testicular changes.
The increases were generally dose-proportional or greater-than dose-proportional on Day 1 and Day 28. Gender difference was not observed. No significant accumulation of Compound 1 or Compound 2 was observed.
Thirty-two beagle dogs (conventional, naive) were divided into four groups. Each group consists of four male and four female. Group 1 beagle dogs were administered vehicle and groups 2-4 beagle dogs were administered Compound 1 at 10 mg/kg, 30 mg/kg, and 100 mg/kg, respectively, by oral gavage once daily for 28 consecutive days (Table 15). […] Cmax (ng/mL) and AUClast (hr*ng/mL) of Compound 1 on day 1 were obtained for groups 2-4 (Table 15).

[5] = system: CPEvIII GBM; assay: Intracranial orthotopic CPEvIII allograft in mice; type: in vivo, mouse
Description: Cells (100,000 cells resuspended in 1 μl PBS) were intracranially injected into the right striatum (0 mm anterior, 2 mm lateral, and 2.5 mm ventral to bregma) of 8-10 week-old ICR-SCID mice. Animals were monitored daily for development of neurological defects.
Neural stem cells (NSCs) from E14.5 embryonic mice (Cdkn2a-null; Ptenf/f) striata were isolated and cultured as previously described (Rietze, R. L., and Reynolds, B. A. (2006). Methods in enzymology 419, 3-23). NSCs were infected twice with adenovirus expressing Cre recombinase (AdCre; MOI50) (University of Iowa) to knock out floxed Pten. Cells were then transduced with retrovirus expressing EGFRvIII (pBabe-puro-EGFRvIII) (from Dr. Charles Stiles, DFCI) and selected with 1 μg/ml puromycin. The resulting cells (Cdkn2anull; Ptennull; EGFRvIII, denominated CPEvIII) can form a glioma after grafted into the mouse brain. Tumors were then isolated and mechanically dissociated for expansion in vitro and in vivo.
In GBM, EGFR mutations frequently coexist with CDKN2A deletion and PTEN deficiency (Brennan, C. W., et al. (2013). Cell 155, 462-477; Cancer Genome Atlas Research, N. (2008). Nature 455, 1061-1068). A syngeneic genetically engineered mouse (GEM) model of GBM driven by Cdkn2a and Pten double deletion concomitant with EGFRvIII expression (termed CPEvIII) has been generated. […]

[6] = system: BT179 cells; assay: Cell viability, patient-derived GBM line BT179; conditions: Homo sapiens, 72 h
Description: Primary human glioblastoma lines BT112, BT179 and BT333 were maintained in NeuroCult proliferation medium (human) (StemCell Technologies) with 20 ng/ml EGF, 10 ng/ml FGF and 0.0002% Heparin.
Cells were seeded in 96-well plates at a density of 1,000 cells per well and treated with two-fold serial dilutions of compounds with a starting concentration of 20 μM. Cell viability was assessed after three days of treatment by CellTiter-Glo (Promega). Curve fitting analysis and IC50 value determination were performed using GraphPad Prism 8.

[7] = CNS functional observational battery; type: in vivo; conditions: rat, PO up to 100 mg/kg
[8] = system: NSCLC brain metastases; assay: NSCLC brain metastases in SCID mice
[9] = system: PC-9 cells (EGFR exon 19 deletion); assay: Cell viability assay, PC-9 (CellTiter-Glo); type: cell-based; conditions: Homo sapiens, PC-9; read-out: IC50, cell viability
Text: CellTier-Glo (Promega) assay kit (https://www.promega.com/resources/protocols/technical-bulletins/0/celltiter-glo-luminescentcell-viability-assay-protocol/) was used here.

[10] = both sexes, beagle, in vivo, dog, day 1, oral gavage

## C=CC(=O)Nc1cc(Nc2nccc(-n3ccc4cccnc43)n2)c(OC)cc1N(C)CCN(C)C [Compound 1, N-(5-((4-(1H-pyrrolo[2,3-b]pyridin-1-yl)pyrimidin-2-yl)amino)-2-((2-(dimethylamino)ethyl)(methyl)amino)-4-methoxyphenyl)acrylamide]
[1]
  P-gp inhibition: No P-gp inhibition
[1]; read-out: IC50, P-gp mediated transport of digoxin
  IC50: > 30 µM
[2]
  IC50: 4.89 µM
[3]; both sexes, Sprague-Dawley, in vivo, oral, 4-week Rat toxicology
  NOAEL at 28 days: 10 mg/kg
[3]; both, Sprague-Dawley, rat, in vivo
  NOEL for testicular lesions: 10 mg/kg
[3]; both, Sprague-Dawley, rat, in vivo, po
  STD10: 30 mg/kg
[3]; rat
  NOEL for myocardial risk: 100 mg/kg
[3]; rat, in vivo, po, 10 mg/kg
  toxicity at 10 mg/kg: No toxicity
[4]; 100 mg/kg/day, attributed to myocardial degeneration
  mortality: one male was found dead on Day 13
[4]; beagle, in vivo, po, dog Day 1, 10 mg/kg/day, Female
  Cmax: 142 ng/mL
[4]; beagle, in vivo, po, dog Day 1, 10 mg/kg/day, Female, read-out: AUClast
  AUC(0-t): 2060 ng·h/mL
[4]; beagle, in vivo, po, dog Day 1, 10 mg/kg/day, Male
  Cmax: 166 ng/mL
[4]; beagle, in vivo, po, dog Day 1, 10 mg/kg/day, Male, read-out: AUClast
  AUC(0-t): 1650 ng·h/mL
[4]; beagle, in vivo, po, dog Day 1, 30 mg/kg/day, Female
  Cmax: 170 ng/mL
[4]; beagle, in vivo, po, dog Day 1, 30 mg/kg/day, Female, read-out: AUClast
  AUC(0-t): 1960 ng·h/mL
[4]; beagle, in vivo, po, dog Day 1, 30 mg/kg/day, Male
  Cmax: 317 ng/mL
[4]; beagle, in vivo, po, dog Day 1, 30 mg/kg/day, Male, read-out: AUClast
  AUC(0-t): 3790 ng·h/mL
[4]; beagle, in vivo, po, dog Day 1, 100 mg/kg/day, Female
  Cmax: 293 ng/mL
[4]; beagle, in vivo, po, dog Day 1, 100 mg/kg/day, Female, read-out: AUClast
  AUC(0-t): 4060 ng·h/mL
[4]; beagle, in vivo, po, dog Day 1, 100 mg/kg/day, Male
  Cmax: 367 ng/mL
[4]; beagle, in vivo, po, dog Day 1, 100 mg/kg/day, Male, read-out: AUClast
  AUC(0-t): 5190 ng·h/mL
[4]; both sexes, beagle, in vivo, oral, 4-week Dog toxicology
  NOAEL: 10 mg/kg
[4]; [10]
  Tmax: 4 h
  half-life: 8 h
[4]; dog
  NOEL for myocardial risk: 30 mg/kg
  HNSTD: 30 mg/kg
[4]; dog, estimated
  HNSTD: 30 mg/kg/day
[4]; female, beagle, in vivo, dog Day 28 mean, 10 mg/kg Compound 1 PO, F, Compound 2 as metabolite
  Cmax: 867 ng/mL
[4]; female, beagle, in vivo, dog Day 28 mean, 10 mg/kg Compound 1 PO, F, Compound 2 as metabolite, read-out: AUC0-24
  AUC(0-t): 6540 ng·h/mL
[4]; female, beagle, in vivo, dog Day 28 mean, 30 mg/kg Compound 1 PO, F, Compound 2 as metabolite
  Cmax: 508 ng/mL
[4]; female, beagle, in vivo, dog Day 28 mean, 30 mg/kg Compound 1 PO, F, Compound 2 as metabolite, read-out: AUC0-24
  AUC(0-t): 3490 ng·h/mL
[4]; from dog NOEL 30 mg/kg
  human equivalent dose (HED) of the NOEL for myocardial risk: 15 mg/kg
[4]; male, beagle, in vivo, dog Day 28 mean, 10 mg/kg Compound 1 PO, M, Compound 2 as metabolite
  Cmax: 578 ng/mL
[4]; male, beagle, in vivo, dog Day 28 mean, 10 mg/kg Compound 1 PO, M, Compound 2 as metabolite, read-out: AUC0-24
  AUC(0-t): 3880 ng·h/mL
[4]; male, beagle, in vivo, dog Day 28 mean, 30 mg/kg Compound 1 PO, M, Compound 2 as metabolite
  Cmax: 974 ng/mL
[4]; male, beagle, in vivo, dog Day 28 mean, 30 mg/kg Compound 1 PO, M, Compound 2 as metabolite, read-out: AUC0-24
  AUC(0-t): 7180 ng·h/mL
[5]; 75 mg/kg QD
  body weight during treatment: no significant loss of body weight
[5]; tumors at end point, 75 mg/kg
  phosphorylation levels of EGFRvIII in tumors (IHC): reduced
[6]
  IC50: 0.893 µM
[7]
  CNS effects in functional observational battery: no adverse CNS effects
[8]; 25 mpk, control 28.5 Days
  Median survival: 80.5 days
[8]; Compound 1 25-50 mg/kg, osimertinib 25 mg/kg
  brain metastases relative to control post-treatment: Reduced brain metastases
[9]
  IC50: 0.0628 µM
